# Laboratory results as given in patent US9693954B2, “Co-delivery of stimulatory and inhibitory factors to create temporally stable and spatially restricted zones” (President and Fellows of Harvard College, priority 2010, dated 2017).
# B1: BMP4: bone morphogenetic protein 4, morphogen used to drive bone differentiation (protein, UniProt P12644 293-408, looked up)
# Bone morphogenetic protein 4: SPKHHSQRARKKNKNCRRHSLYVDFSDVGWNDWIVAPPGYQAFYCHGDCPFPLADHLNSTNHAIVQTLVNSVNSSIPKACCVPTELSAISMLYLDEYDKVVLKNYQEMVVEGCGCR
# What was measured:
# [1] = test system: TGF-β reporter line (MLEC p3TP Luc); assay: TGF-β reporter cell line luciferase activity; type: cell-based
# Method: (§1) FIG. 22E is a schematic showing an experimental scheme to show the precise kinetics of growth factor exposure on luciferase activity in the reporter lines. Following seeding and serum starvation (reduces background), a specific inhibitor is added to create a uniform inhibitory field. Subsequently, for given amounts of time, the inhibitor is washed off, the growth factor (either TGF-β1 or BMP4) is added for specified time, and washed off followed by re-addition of the inhibitor. At 24 hours, cells are lysed and assayed for luciferase activity.
# (§2) The reporter cell lines were seeded in these 5 layered systems and imaged for luciferase activity after 24 hours to confirm development of spatially distinct morphogens fields.
# [2] = test system: phospho-Smad2 in D1 (MSCs); assay: immunoblot / immunostaining for phospho-Smad2 (2/3) in D1 MSCs; type: cell-based
# Method: (§3) Experiments were carried out with the following morphogens: TGF-β1 to drive dentin differentiation and BMP4 to drive bone differentiation. The scaffold devices were fabricated, loaded with morphogens (in this case, differentiation factors), and then seeded with stem cells, e.g., mesendymal stem cells, embryonic stem cells or induced pluripotent stem cells (iPS)). The loaded, seeded devices were cultured for 21 days with no additional factors present in the media. All factors came from within the scaffold from the point of seeding. Immunoblots were carried out to assess activation of the downstream Smad signaling pathways following treatment of D1s with these morphogens.
# angiogenesis = details: from previous studies; cited from earlier work
# [3] = test system: dermal human vascular endothelial cells (HMVECs); assay: in vitro sprouting assay (cell-seeded dextran beads in fibrin gel); type: cell-based; details: HMVEC-coated beads in fibrin gel, 4 days, 10 ng/mL HGF in all media
# Method: Briefly, dermal human vascular endothelial cells (HMVECs) were purchased from Lonza (CC-2543) and cultured to confluence at 37° C. and 5% CO2 in microvascular endothelial cell growth medium-2 (EGM-2MV) (Lonza) containing all supplements. Angiogenic activity of endothelial cells was assessed using a modification of a widely used in vitro sprouting assay (Nehls, V., and Drenckhahn, D. 1995 Microvasc Res 50, 311-322). Briefly, dextran beads microcarriers (Cytodex 3) with a dry weight of 50 mg were swollen in PBS and autoclaved. The microcarriers were washed in EGM-2MV medium and seeded with 3×10^6 HMVECs in a spinner flask. The microcarriers were stirred for 2 minutes out of 30 minutes for […] at 37° C. incubation. After 4 hours, the beads and cells mixture were continuously stirred and incubated for an additional 20 hours. The cell-coated beads were then seeded in fibrin gel in a 24-well-plate. The composition of the fibrin gel in each well was 0.682 mg fibrinogen (Sigma, T3879), 11.4 μg aprotinin (Sigma, A4529), 0.455 U thrombin (Sigma, T6884) in 393 μL of phosphate buffered saline (PBS) and 57 μL of EGM2-MV. Gels were incubated at 37° C. for 30 minutes and media of experimental conditions were placed on top of the gel. […] Media were changed every 24 hours and the cells were allowed to sprout from beads into surrounding gel over 4 days. […]
# [4] = test system: BMP4 reporter (C2C12 BRE Luc); assay: BMP4 reporter cell line luciferase activity; type: cell-based
# Method: as §1, §2
# [5] = test system: phospho-Smad1/5/8 in D1 (MSCs); assay: immunoblot for phospho-Smad1/5/8 in D1 MSCs; type: cell-based
# Method: as §3
# [6] = inhibitor wash-off / re-addition scheme, lysis at 24 hours
molecule,measurement,setting,value
"TGF-β1: transforming growth factor-β1, morphogen used to drive dentin differentiation",luciferase activity with varying TGF-β1 concentration,[1],linear dose dependence
same,exposure time sufficient for maximal induction of luciferase activity,[1]; [6],5 to 15 min
same,phospho-Smad2 activation (immunoblot),[2],dose-dependent activation
same,phospho-Smad2/3 immunostaining,[2]; following stimulation,nuclear localization of activated Smads
VEGF,minimum effective VEGF concentration in vivo to induce angiogenesis,angiogenesis,~5 ng/mL
same,angiogenic sprouting (number of sprouts per bead),[3],induced angiogenic sprouting
B1,luciferase activity with varying BMP4 concentration,[4],linear dose dependence
same,exposure time sufficient for maximal induction of luciferase activity,[4]; [6],5 to 15 min
same,phospho-Smad1/5/8 activation (immunoblot),[5],dose-dependent activation
